What was measured:
barnyardgrass = test: Test A pre-/postemergence greenhouse test; type: in vivo, Echinochloa crus-galli; conditions: for Plant response rating, Barnyardgrass: 0 to 100 scale where 0 is no effect and 100 is complete control; for Barnyardgrass plant response rating: 0 to 100 scale
How it was run: (§1)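 Seeds sown in a loam soil–sand blend got a preemergence directed soil spray of compound in a non-phytotoxic solvent mixture containing surfactant. Postemergence sprays of the same formulation went at the same time onto plants 2–10 cm tall at the one- to two-leaf stage. Injury was scored visually against untreated controls after about ten days in the greenhouse.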

redroot pigweed = test: Test A pre-/postemergence greenhouse test; type: in vivo, Amaranthus retroflexus; conditions: for Plant response rating, Pigweed: 0 to 100 scale where 0 is no effect and 100 is complete control; for Pigweed plant response rating: 0 to 100 scale
How it was run: as §1

velvetleaf [1] = test: Test A pre-/postemergence greenhouse test; type: in vivo, Abutilon theophrasti; conditions: for Plant response rating, Velvetleaf: 0 to 100 scale where 0 is no effect and 100 is complete control; for Velvetleaf plant response rating: 0 to 100 scale
How it was run: as §1

downy brome = test: Test C pre-/postemergence test; type: in vivo, Bromus tectorum
How it was run: (§2)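 Compounds in a non-phytotoxic solvent with surfactant applied preemergence to seeded pots and, at the same time, postemergence to plants 2–18 cm tall (1- to 4-leaf stage). Paddy tests: pots flooded to 3 cm, compound applied into the water, depth held throughout.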

green foxtail = test: Test C pre-/postemergence test; type: in vivo, Setaria viridis
How it was run: as §2

wild oat = test: Test C pre-/postemergence test; type: in vivo, Avena fatua
How it was run: as §2

Surinam grass = test: Test C pre-/postemergence test; type: in vivo, Brachiaria decumbens
How it was run: as §2

cocklebur = test: Test C pre-/postemergence test; type: in vivo, Xanthium strumarium
How it was run: as §2

crabgrass = test: Test C pre-/postemergence test; type: in vivo, Digitaria sanguinalis
How it was run: as §2

giant foxtail = test: Test C pre-/postemergence test; type: in vivo, Setaria faberii
How it was run: as §2

johnsongrass = test: Test C pre-/postemergence test; type: in vivo, Sorghum halepense
How it was run: as §2

kochia = test: Test C pre-/postemergence test; type: in vivo, Kochia scoparia
How it was run: as §2

lambsquarters = test: Test C pre-/postemergence test; type: in vivo, Chenopodium album
How it was run: as §2

eastern black nightshade = test: Test C pre-/postemergence test; type: in vivo, Solanum ptycanthum
How it was run: as §2

common ragweed = test: Test C pre-/postemergence test; type: in vivo, Ambrosia elation
How it was run: as §2

velvetleaf [2] = test: Test C pre-/postemergence test; type: in vivo, Abutilon theophrasti
How it was run: as §2

rice = test: Test C flooded paddy test; type: in vivo, Oryza sativa; conditions: Flood
How it was run: (§3)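 Pots were flooded to 3 cm above the soil surface at treatment, compound applied directly to the paddy water, and that depth held throughout. Plants were kept in a greenhouse for 13 to 15 days, then visually rated against untreated controls.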

duck salad = test: Test C flooded paddy test; type: in vivo, Heteranthera limosa; conditions: Flood
How it was run: as §3

[3] = Postemergence, 500 g ai/ha, 0 is no effect, 100 is complete control
[4] = Preemergence, 125 g ai/ha, 0 no effect, 100 complete control
[5] = 62 g ai/ha, Preemergence, scale 0 to 100
[6] = 125 g ai/ha, preemergence, scale 0 (no effect) to 100 (complete control)
[7] = Preemergence, 31 g ai/ha, scale 0 to 100 (0 no effect, 100 complete control)
[8] = preemergence, 250 g ai/ha, scale 0 (no effect) to 100 (complete control)
[9] = 62 g ai/ha, scale 0 to 100 (0 no effect, 100 complete control)
[10] = 250 g ai/ha, scale 0 to 100, 0 no effect, 100 complete control, 13 to 15 days

Cn1nc(C(F)(F)F)c(CS(=O)(=O)c2cccc[n+]2[O-])c1OCC(F)F [Compound 81]
Plant response rating, Barnyardgrass (barnyardgrass; Postemergence, 125 g ai/ha): 60
Barnyardgrass plant response rating (barnyardgrass; [3]): 80
Barnyardgrass plant response rating (barnyardgrass; [4]): 90
Plant response rating, Barnyardgrass (barnyardgrass; Preemergence, 500 g ai/ha): 100
Plant response rating, Pigweed (redroot pigweed; Postemergence, 125 g ai/ha): 40
Pigweed plant response rating (redroot pigweed; [3]): 70
Pigweed plant response rating (redroot pigweed; [4]): 90
Plant response rating, Pigweed (redroot pigweed; Preemergence, 500 g ai/ha): 100
Plant response rating, Velvetleaf (velvetleaf [1]; Postemergence, 125 g ai/ha): 10
Velvetleaf plant response rating (velvetleaf [1]; [3]): 70
Velvetleaf plant response rating (velvetleaf [1]; [4]): 10
Plant response rating, Velvetleaf (velvetleaf [1]; Preemergence, 500 g ai/ha): 100
Bromegrass, Downy plant response rating (downy brome; [5]): 40
Bromegrass, Downy plant response rating (downy brome; [6]): 100
Plant response rating, Bromegrass, Downy (downy brome; [7]): 40
Bromegrass, Downy plant response rating (downy brome; [8]): 100
Foxtail, Green plant response rating (green foxtail; [5]): 75
Foxtail, Green plant response rating (green foxtail; [6]): 100
Plant response rating, Foxtail, Green (green foxtail; [7]): 65
Foxtail, Green plant response rating (green foxtail; [8]): 100
Oat, Wild plant response rating (wild oat; [5]): 60
Oat, Wild plant response rating (wild oat; [6]): 95
Plant response rating, Oat, Wild (wild oat; [7]): 0
Oat, Wild plant response rating (wild oat; [8]): 95
Surinam Grass plant response rating (Surinam grass; [5]): 80
Surinam Grass plant response rating (Surinam grass; [6]): 100
Plant response rating, Surinam Grass (Surinam grass; [7]): 70
Surinam Grass plant response rating (Surinam grass; [8]): 100
Cocklebur plant response rating (cocklebur; [5]): 0
Cocklebur plant response rating (cocklebur; [6]): 50
Plant response rating, Cocklebur (cocklebur; [7]): 0
Cocklebur plant response rating (cocklebur; [8]): 60
Crabgrass, Large plant response rating (crabgrass; [5]): 80
Crabgrass, Large plant response rating (crabgrass; [6]): 98
Plant response rating, Crabgrass, Large (crabgrass; [7]): 60
Crabgrass, Large plant response rating (crabgrass; [8]): 98
Foxtail, Giant plant response rating (giant foxtail; [5]): 98
Foxtail, Giant plant response rating (giant foxtail; [6]): 100
Plant response rating, Foxtail, Giant (giant foxtail; [7]): 80
Foxtail, Giant plant response rating (giant foxtail; [8]): 100
Johnsongrass plant response rating (johnsongrass; [5]): 95
Johnsongrass plant response rating (johnsongrass; [6]): 100
Plant response rating, Johnsongrass (johnsongrass; [7]): 95
Johnsongrass plant response rating (johnsongrass; [8]): 100
Kochia plant response rating (kochia; [5]): 100
Kochia plant response rating (kochia; [6]): 100
Plant response rating, Kochia (kochia; [7]): 40
Kochia plant response rating (kochia; [8]): 100
Lambsquarters plant response rating (lambsquarters; [5]): 100
Lambsquarters plant response rating (lambsquarters; [6]): 100
Plant response rating, Lambsquarters (lambsquarters; [7]): 80
Lambsquarters plant response rating (lambsquarters; [8]): 100
Nightshade plant response rating (eastern black nightshade; [5]): 70
Nightshade plant response rating (eastern black nightshade; [6]): 90
Plant response rating, Nightshade (eastern black nightshade; [7]): 0
Nightshade plant response rating (eastern black nightshade; [8]): 90
Ragweed plant response rating (common ragweed; [5]): 80
Ragweed plant response rating (common ragweed; [6]): 100
Plant response rating, Ragweed (common ragweed; [7]): 0
Ragweed plant response rating (common ragweed; [8]): 100
Velvetleaf plant response rating (velvetleaf [2]; [5]): 45
Velvetleaf plant response rating (velvetleaf [2]; [6]): 70
Plant response rating, Velvetleaf (velvetleaf [2]; [7]): 0
Velvetleaf plant response rating (velvetleaf [2]; [8]): 85
Plant response rating, Rice (rice; [9]): 0
Plant response rating, Rice (rice; [10]): 0
Plant response rating, Ducksalad (duck salad; [9]): 65
Plant response rating, Ducksalad (duck salad; [10]): 75

— patent publication US20100298141A1, “SUBSTITUTED PYRIDINE N-OXIDE HERBICIDES” (E. I. DU PONT DE NEMOURS AND COMPANY, priority 2007, published 2010)
